Holding throughout (experiment): relative viability (nuclei count vs DMSO), 5 days (fraction); higher = more cells survive
Compound in assay [1]: C1CNCCC1C2=CC(=NN2)C3=CC=NC=C3 + CC(=O)Nc1cccc(-n2c(=O)n(C3CC3)c(=O)c3c(Nc4ccc(I)cc4F)n(C)c(=O)c(C)c32)c1 [Trametinib] (partner 0.02 µM)
An outline of the steps:
(§1)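 Nuclei were stained with Hoechst during a one-step fixation (final 0.05% Triton X-100, 1% formaldehyde, 1 ug/ml Hoechst) carried out 5 days after dosing, then counted on 4× images. The cells, lung cancer lines in 1536-well plates, had been dosed by pin tool the day after seeding with one drug alone or a fixed anchor-drug dose plus five library-drug doses (not always all listed) in √10 steps. Relative viability is the nuclei count in treated wells divided by that in vehicle wells, and each value is the median of duplicate plates.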

Compound in the assay “Tanzisertib + Navitoclax”: O[C@H]1CC[C@H](Nc2ncc3nc(Nc4c(F)cc(F)cc4F)n([C@H]4CCOC4)c3n2)CC1 [Tanzisertib] + CC1(C)CCC(c2ccc(Cl)cc2)=C(CN2CCN(c3ccc(C(=O)NS(=O)(=O)c4ccc(N[C@H](CCN5CCOCC5)CSc5ccccc5)c(S(=O)(=O)C(F)(F)F)c4)cc3)CC2)C1 [Navitoclax] (partner 0.5 µM)
In a few lines:
as §1

Compound in the assay “Tanzisertib + Olaparib”: O[C@H]1CC[C@H](Nc2ncc3nc(Nc4c(F)cc(F)cc4F)n([C@H]4CCOC4)c3n2)CC1 [Tanzisertib] + O=C(c1cc(Cc2n[nH]c(=O)c3ccccc23)ccc1F)N1CCN(C(=O)C2CC2)CC1 [Olaparib] (partner 8 µM)
An outline of the steps:
as §1

Compound in the assay “Tanzisertib + Phenformin”: O[C@H]1CC[C@H](Nc2ncc3nc(Nc4c(F)cc(F)cc4F)n([C@H]4CCOC4)c3n2)CC1 [Tanzisertib] + N=C(N)NC(=N)NCCc1ccccc1 [Phenformin] (partner 250 µM)
In a few lines:
as §1

PC-3 [JPC-3]: the relative viability stood at 0.637 in assay [1] (first compound 0.08 µM); 0.718 in assay [1] (first compound 0.8 µM); 0.734 in assay [1] (first compound 2.53 µM); 0.684 in assay [1] (first compound 8 µM); 0.898 with Tanzisertib + Navitoclax (first compound 0.08 µM); 0.815 in the assay with Tanzisertib + Navitoclax (first compound 0.253 µM). Moreover, the relative viability with Tanzisertib + Navitoclax (first compound 0.8 µM) worked out at 0.866; with Tanzisertib + Navitoclax (first compound 2.53 µM), 0.81; in the assay with Tanzisertib + Navitoclax (first compound 8 µM), 0.853; in the assay with Tanzisertib + Olaparib (first compound 0.08 µM), 1.18; with Tanzisertib + Olaparib (first compound 0.253 µM) it was 1.21; in the assay with Tanzisertib + Olaparib (first compound 0.8 µM), 1.19. Besides, the relative viability in the assay with Tanzisertib + Olaparib (first compound 2.53 µM) was 1.18; with Tanzisertib + Olaparib (first compound 8 µM), 1.04; with Tanzisertib + Phenformin (first compound 0.08 µM), 0.488; in the assay with Tanzisertib + Phenformin (first compound 0.253 µM) it was 0.492; with Tanzisertib + Phenformin (first compound 0.8 µM), 0.509; with Tanzisertib + Phenformin (first compound 2.53 µM), 0.494. In the assay with Tanzisertib + Phenformin (first compound 8 µM), the relative viability came to 0.461.

Regarding PC-14, the relative viability was 0.64 in assay [1] (first compound 0.08 µM); 0.761 in assay [1] (first compound 0.8 µM); 0.903 in assay [1] (first compound 2.53 µM); 0.763 in assay [1] (first compound 8 µM); 1.03 with Tanzisertib + Navitoclax (first compound 0.08 µM); 1.05 in the assay with Tanzisertib + Navitoclax (first compound 0.253 µM). The relative viability came to 0.934 with Tanzisertib + Navitoclax (first compound 0.8 µM); 1.02 with Tanzisertib + Navitoclax (first compound 2.53 µM); 0.736 with Tanzisertib + Navitoclax (first compound 8 µM); 0.343 with Tanzisertib + Olaparib (first compound 0.08 µM); 0.228 with Tanzisertib + Olaparib (first compound 0.253 µM); 0.402 with Tanzisertib + Olaparib (first compound 0.8 µM). Further, the relative viability with Tanzisertib + Olaparib (first compound 2.53 µM) came out at 0.271; with Tanzisertib + Olaparib (first compound 8 µM), 0.246; with Tanzisertib + Phenformin (first compound 0.08 µM) it was 0.471; with Tanzisertib + Phenformin (first compound 0.253 µM), 0.746; with Tanzisertib + Phenformin (first compound 0.8 µM) it was 0.671; in the assay with Tanzisertib + Phenformin (first compound 2.53 µM), 0.599. Moreover, the relative viability with Tanzisertib + Phenformin (first compound 8 µM) stood at 0.115.

Regarding RERF-LC-KJ, the relative viability in assay [1] (first compound 0.08 µM) amounted to 0.837; in assay [1] (first compound 0.8 µM) it was 0.83; in assay [1] (first compound 2.53 µM), 0.966; in assay [1] (first compound 8 µM) it was 0.858; in the assay with Tanzisertib + Navitoclax (first compound 0.08 µM), 0.918; in the assay with Tanzisertib + Navitoclax (first compound 0.253 µM), 0.789. Moreover, the relative viability with Tanzisertib + Navitoclax (first compound 0.8 µM) amounted to 0.791; with Tanzisertib + Navitoclax (first compound 2.53 µM), 0.818; with Tanzisertib + Navitoclax (first compound 8 µM) it was 0.882; with Tanzisertib + Olaparib (first compound 0.08 µM), 0.997; with Tanzisertib + Olaparib (first compound 0.253 µM), 0.925; in the assay with Tanzisertib + Olaparib (first compound 0.8 µM) it was 0.942. Besides, the relative viability amounted to 0.94 in the assay with Tanzisertib + Olaparib (first compound 2.53 µM); 0.912 with Tanzisertib + Olaparib (first compound 8 µM); 0.45 with Tanzisertib + Phenformin (first compound 0.08 µM); 0.39 in the assay with Tanzisertib + Phenformin (first compound 0.253 µM); 0.439 with Tanzisertib + Phenformin (first compound 0.8 µM); 0.4 with Tanzisertib + Phenformin (first compound 2.53 µM). Also, the relative viability in the assay with Tanzisertib + Phenformin (first compound 8 µM) worked out at 0.384.

With SK-LU-1, the relative viability in assay [1] (first compound 0.08 µM) amounted to 0.449; in assay [1] (first compound 0.8 µM), 0.445; in assay [1] (first compound 2.53 µM), 0.541; in assay [1] (first compound 8 µM), 0.528; with Tanzisertib + Navitoclax (first compound 0.08 µM) it was 0.834; with Tanzisertib + Navitoclax (first compound 0.253 µM), 0.748. Further, the relative viability in the assay with Tanzisertib + Navitoclax (first compound 0.8 µM) was determined as 0.759; with Tanzisertib + Navitoclax (first compound 2.53 µM), 1.25; in the assay with Tanzisertib + Navitoclax (first compound 8 µM), 0.8; in the assay with Tanzisertib + Olaparib (first compound 0.08 µM), 0.502; in the assay with Tanzisertib + Olaparib (first compound 0.253 µM) it was 0.538; with Tanzisertib + Olaparib (first compound 0.8 µM), 0.453. For the same cell line, the relative viability in the assay with Tanzisertib + Olaparib (first compound 2.53 µM) amounted to 0.491; in the assay with Tanzisertib + Olaparib (first compound 8 µM), 0.373; with Tanzisertib + Phenformin (first compound 0.08 µM) it was 0.694; with Tanzisertib + Phenformin (first compound 0.253 µM) it was 0.542; in the assay with Tanzisertib + Phenformin (first compound 0.8 µM), 0.566; in the assay with Tanzisertib + Phenformin (first compound 2.53 µM), 0.509. Further, in the assay with Tanzisertib + Phenformin (first compound 8 µM), the relative viability was determined as 0.561.

SK-MES-1: the relative viability in assay [1] (first compound 0.08 µM) came out at 0.553; in assay [1] (first compound 0.8 µM), 0.549; in assay [1] (first compound 2.53 µM), 0.542; in assay [1] (first compound 8 µM) it was 0.578; with Tanzisertib + Navitoclax (first compound 0.08 µM), 1.31; with Tanzisertib + Navitoclax (first compound 0.253 µM), 1.25. Further, the relative viability in the assay with Tanzisertib + Navitoclax (first compound 0.8 µM) was found to be 1.26; with Tanzisertib + Navitoclax (first compound 2.53 µM), 1.22; in the assay with Tanzisertib + Navitoclax (first compound 8 µM), 1.21; with Tanzisertib + Olaparib (first compound 0.08 µM), 0.699; with Tanzisertib + Olaparib (first compound 0.253 µM), 0.709; in the assay with Tanzisertib + Olaparib (first compound 0.8 µM), 0.742. Besides, the relative viability in the assay with Tanzisertib + Olaparib (first compound 2.53 µM) came to 0.653; with Tanzisertib + Olaparib (first compound 8 µM), 0.624; with Tanzisertib + Phenformin (first compound 0.08 µM), 0.683; with Tanzisertib + Phenformin (first compound 0.253 µM) it was 0.637; with Tanzisertib + Phenformin (first compound 0.8 µM), 0.663; with Tanzisertib + Phenformin (first compound 2.53 µM), 0.645. The relative viability with Tanzisertib + Phenformin (first compound 8 µM) came out at 0.632.

In the case of SW 1573, the relative viability in assay [1] (first compound 0.8 µM) amounted to 0.6; in assay [1] (first compound 2.53 µM) it was 0.556; in assay [1] (first compound 8 µM), 0.622; with Tanzisertib + Navitoclax (first compound 0.08 µM), 1.02; with Tanzisertib + Navitoclax (first compound 0.253 µM), 0.994; in the assay with Tanzisertib + Navitoclax (first compound 0.8 µM), 0.974. The relative viability amounted to 1.05 with Tanzisertib + Navitoclax (first compound 2.53 µM); 0.909 with Tanzisertib + Navitoclax (first compound 8 µM); 0.453 in the assay with Tanzisertib + Olaparib (first compound 0.08 µM); 0.406 in the assay with Tanzisertib + Olaparib (first compound 0.253 µM); 0.475 in the assay with Tanzisertib + Olaparib (first compound 0.8 µM); 0.455 with Tanzisertib + Olaparib (first compound 2.53 µM). Besides, the relative viability with Tanzisertib + Olaparib (first compound 8 µM) amounted to 0.443; with Tanzisertib + Phenformin (first compound 0.08 µM), 0.457; with Tanzisertib + Phenformin (first compound 0.253 µM) it was 0.305; with Tanzisertib + Phenformin (first compound 0.8 µM) it was 0.347; with Tanzisertib + Phenformin (first compound 2.53 µM) it was 0.417; in the assay with Tanzisertib + Phenformin (first compound 8 µM), 0.356.

Source of the values: the supplement of paper PMC10307832.
